Results as given in patent US5536645A, “Nutritive medium for the culture of microorganism” (priority 1993, dated 1996).
Like-named read-outs stand apart in the source and are kept apart here.

What was measured:
Type in all cases: cell-based
S. epidermidis = test: microbe, parasite or virus in culture; details: for MIC: Staphylococcus epidermidis, 12 h, read-out: Equivalent MIC
Method: (§1) With the determination of the sensitivity to antibiotics in mind, a suspension of 0.5 MF (Mac Farland) in physiological water was prepared from bacterial colonies selected in Petri dishes, reading being carried out on an ATB 1550 densitometer marketed by BIOMERIEUX (ATB trade mark). The suspension obtained was respectively diluted to 1/100th in the medium of the invention and Mueller-Hinton medium. VITEK cards (VITEK trade mark) containing different antibiotics at 10 concentrations were filled in vacuo into a VITEK apparatus marketed by BIOMERIEUX-VITEK. The cards were incubated for 12 hours in a VITEK incubator/reader marketed by BIOMERIEUX-VITEK. The growth kinetics were visualized and interpreted and an equivalent MIC was determined (equivalent MIC: equivalent minimum inhibitory concentration, that is to say the smallest concentration for which no bacterial growth is detected by the apparatus).
(§2) IST refers to the medium of the invention and MH signifies Mueller-Hinton medium.
(§3) *A range of concentration, of ratio 2, was tested for each antibiotic in
(§4) each of the abovementioned concentration margins.
(§5) S, I and R respectively signify "sensitive", "intermediate" and "resistant" with reference to the critical concentrations defined by the NCCLS (National Committee for Clinical Laboratory Standards).

S. aureus = test: microbe, parasite or virus in culture; details: for MIC: Staphylococcus aureus, read-out: Equivalent MIC
Method: as §1, §2, §3, §4, §5

E. faecalis = test: Equivalent MIC of antibiotics in VITEK cards, gram-positive bacteria (Table 4); details: for MIC: Enterococcus faecalis, 12 h
Method: as §1, §2, §3, §4, §5

S. marcescens = test: Equivalent MIC of antibiotics in VITEK cards, gram-negative bacteria (Table 3); details: for MIC: Serratia marcescens, 12 h, read-out: Equivalent MIC
Method: as §1, §2, §5

K. pneumoniae = test: as above; details: for MIC: Klebsiella pneumoniae, 12 h
Method: as §1, §2, §5

[1] = ATCC29213, 12 h, ATCC 29213, IST medium
[2] = ATCC29213, 12 h, ATCC 29213, MH medium

Structure (SMILES): CC[C@H]1OC(=O)[C@H](C)[C@@H](O[C@H]2C[C@@](C)(OC)[C@@H](O)[C@H](C)O2)[C@H](C)[C@@H](O[C@@H]2O[C@H](C)C[C@H](N(C)C)[C@H]2O)[C@](C)(O)C[C@@H](C)C(=O)[C@H](C)[C@@H](O)[C@]1(C)O [erythromicin]
- NCCLS Category (S. epidermidis; CDC 2024, IST medium): S
- NCCLS Category (S. epidermidis; CDC 2024, MH medium): S
- NCCLS Category (S. epidermidis; CDC 2105, IST medium): S
- NCCLS Category (S. epidermidis; CDC 2105, MH medium): S
- NCCLS Category (S. epidermidis; CDC 2234, IST medium): R
- NCCLS Category (S. epidermidis; CDC 2234, MH medium): R
- MIC (S. epidermidis; CDC 2024, IST medium): 0.5 µg/mL
- MIC (S. epidermidis; CDC 2024, MH medium): 0.25 µg/mL
- MIC (S. epidermidis; CDC 2105, IST medium): 0.25 µg/mL
- MIC (S. epidermidis; CDC 2105, MH medium): 0.25 µg/mL
- MIC (S. epidermidis; CDC 2234, IST medium): > 32 µg/mL
- MIC (S. epidermidis; CDC 2234, MH medium): > 32 µg/mL
- NCCLS Category (S. aureus; ATCC 29213, IST medium): S
- NCCLS Category (S. aureus; ATCC 29213, MH medium): S
- NCCLS Category (S. aureus; CDC 2194, IST medium): R
- NCCLS Category (S. aureus; CDC 2194, MH medium): R
- NCCLS Category (S. aureus; CDC 2215, IST medium): S
- NCCLS Category (S. aureus; CDC 2215, MH medium): S
- MIC (S. aureus; 12 h, CDC 2194, IST medium): > 32 µg/mL
- MIC (S. aureus; 12 h, CDC 2194, MH medium): > 32 µg/mL
- MIC (S. aureus; 12 h, CDC 2215, IST medium): 0.5 µg/mL
- MIC (S. aureus; 12 h, CDC 2215, MH medium): 0.5 µg/mL
- MIC (S. aureus; [1]): 0.5 µg/mL
- MIC (S. aureus; [2]): 0.25 µg/mL
- NCCLS Category (E. faecalis; CDC 2073, IST medium): R
- NCCLS Category (E. faecalis; CDC 2073, MH medium): R
- NCCLS Category (E. faecalis; CDC 2230, IST medium): I
- NCCLS Category (E. faecalis; CDC 2230, MH medium): I
- MIC (E. faecalis; CDC 2073, IST medium): 16 µg/mL
- MIC (E. faecalis; CDC 2073, MH medium): 16 µg/mL
- MIC (E. faecalis; CDC 2230, IST medium): 4 µg/mL
- MIC (E. faecalis; CDC 2230, MH medium): 4 µg/mL

Structure (SMILES): CC1COc2c(N3CCN(C)CC3)c(F)cc3c(=O)c(C(=O)O)cn1c23 (centres unmarked) [ofloxacin]
- NCCLS Category (S. marcescens; API 81.45.111, IST medium): I
- NCCLS Category (S. marcescens; API 81.45.111, MH medium): S
- NCCLS Category (S. marcescens; API 81.47.110, IST medium): R
- NCCLS Category (S. marcescens; API 81.47.110, MH medium): R
- MIC (S. marcescens; API 81.45.111, IST medium): 4 µg/mL
- MIC (S. marcescens; API 81.45.111, MH medium): 2 µg/mL
- MIC (S. marcescens; API 81.47.110, IST medium): 16 µg/mL
- MIC (S. marcescens; API 81.47.110, MH medium): 8 µg/mL
- NCCLS Category (K. pneumoniae; API 88.03.111, IST medium): S
- NCCLS Category (K. pneumoniae; API 88.03.111, MH medium): S
- NCCLS Category (K. pneumoniae; API 88.08.056, IST medium): I
- NCCLS Category (K. pneumoniae; API 88.08.056, MH medium): I
- NCCLS Category (K. pneumoniae; CDC 2279, IST medium): S
- NCCLS Category (K. pneumoniae; CDC 2279, MH medium): S
- MIC (K. pneumoniae; API 88.03.111, IST medium): 1 µg/mL
- MIC (K. pneumoniae; API 88.03.111, MH medium): 1 µg/mL
- MIC (K. pneumoniae; API 88.08.056, IST medium): 4 µg/mL
- MIC (K. pneumoniae; API 88.08.056, MH medium): 4 µg/mL
- MIC (K. pneumoniae; CDC 2279, IST medium): 0.25 µg/mL
- MIC (K. pneumoniae; CDC 2279, MH medium): 0.25 µg/mL

Structure (SMILES): Cc1onc(-c2ccccc2)c1C(=O)N[C@@H]1C(=O)N2[C@@H]1SC(C)(C)[C@@H]2C(=O)O [oxacillin]
- NCCLS Category (S. epidermidis; CDC 2234, IST medium): S
- NCCLS Category (S. epidermidis; CDC 2234, MH medium): R
- MIC (S. epidermidis; CDC 2234, IST medium): 2 µg/mL
- MIC (S. epidermidis; CDC 2234, MH medium): 4 µg/mL
- NCCLS Category (S. aureus; ATCC 29213, IST medium): S
- NCCLS Category (S. aureus; ATCC 29213, MH medium): S
- NCCLS Category (S. aureus; CDC 2194, IST medium): S
- NCCLS Category (S. aureus; CDC 2194, MH medium): S
- NCCLS Category (S. aureus; CDC 2215, IST medium): S
- NCCLS Category (S. aureus; CDC 2215, MH medium): S
- MIC (S. aureus; 12 h, CDC 2194, IST medium): 1 µg/mL
- MIC (S. aureus; 12 h, CDC 2194, MH medium): < 0.5 µg/mL
- MIC (S. aureus; 12 h, CDC 2215, IST medium): 1 µg/mL
- MIC (S. aureus; 12 h, CDC 2215, MH medium): < 0.5 µg/mL
- MIC (S. aureus; [1]): < 0.25 µg/mL
- MIC (S. aureus; [2]): < 0.25 µg/mL
